In patent US11414689B2, “Hydrolysis of steviol glycosides by beta-glucosidase” (Conagen Inc., priority 2017, dated 2022):

Experiments:
[1] = system: Beta-glucosidase (B-glu1, SEQ: 1); test: de-glycosylation (hydrolysis) of steviol glycosides by purified recombinant B-glu1, HPLC analysis; type: biochemical, Pichia pastoris; settings: for extent of conversion by recombinant B-glu1 at 24 hrs: 1 g/L substrate; for Products of hydrolysis of steviol glycoside substrate by B-glu1: recombinant B-glu1 10 μg in 300 μl, 1 mg/ml steviol glycoside, 50 mM potassium phosphate pH 7.2, 30-37° C.
From the text: According to the current disclosure Pichia pastoris genome analysis was completed and several beta-glycosidase candidate genes were identified. Full length DNA fragments of all candidate beta-glucosidase genes were commercially synthesized. Almost all codons of the cDNA were changed to those preferred for E. coli (Genscript, NJ). The synthesized DNA was cloned into a bacterial expression vector pETite N-His SUMO Kan Vector (Lucigen). These same experiments could be performed in Yarrowia lipolytica with sequences optimized for such use.
Each expression construct was transformed into E. coli BL21 (DE3), which was subsequently grown in LB media containing 50 μg/mL kanamycin at 37° C. until reaching an OD600 of 0.8-1.0. Protein expression was induced by addition of 1 mM isopropyl β-D-1-thiogalactopyranoside (IPTG) and the culture was further grown at 16° C. for 22 hr. Cells were harvested by centrifugation (3,000×g; 10 min; 4° C.). The cell pellets were collected and were either used immediately or stored at −80° C.
The cell pellets typically were re-suspended in lysis buffer (50 mM potassium phosphate buffer, pH 7.2, 25 ug/ml lysozyme, 5 ug/ml DNase I, 20 mM imidazole, 500 mM NaCl, 10% glycerol, and 0.4% Triton X-100). The cells were disrupted by sonication under 4° C., and the cell debris was clarified by centrifugation (18,000×g; 30 min). Supernatant was loaded to an equilibrated (equilibration buffer: 50 mM potassium phosphate buffer, pH 7.2, 20 mM imidazole, 500 mM NaCl, 10% glycerol) Ni-NTA (Qiagen) affinity column. After loading of protein sample, the column was washed with equilibration buffer to remove unbound contaminant proteins. The His-tagged beta-glucosidase recombinant polypeptides were eluted by equilibration buffer containing 250 mM imidazole.
The purified candidate beta-glucosidase recombinant polypeptides were assayed for de-glycosylation activity by using various steviol glycosides as substrate. Typically, the recombinant polypeptide (10 μg) was tested in a 300 μl in vitro reaction system. The reaction system contains 50 mM potassium phosphate buffer, pH 7.2, 1 mg/ml steviol glycoside. The reaction was performed at 30-37° C. and 50 ul reaction was terminated by adding 200 μL 1-butanol at various time points. The samples were extracted three times with 200 μL 1-butanol. The pooled fraction was dried and dissolved in 100 μL 80% methanol for high-performance liquid chromatography (HPLC) analysis.
HPLC analysis was then performed using a Dionex UPLC ultimate 3000 system (Sunnyvale, Calif.), including a quaternary pump, a temperature controlled column compartment, an auto sampler and a UV absorbance detector. A Synergi Hydro-RP column (Phenomenex) with guard column was used for the characterization of steviol glycosides in the pooled samples. Acetonitrile in water was used mobile phase in the HPLC analysis. The detection wavelength used in the HPLC analysis was 210 nm.

[2] = system: disrupted Pichia cells (released B-glu1 enzyme); test: hydrolysis of steviol glycosides by disrupted Pichia cells (crude extract), HPLC analysis; type: biochemical, Pichia pastoris; settings: crude protein 50 ug in 300 ul, 1 g/L substrate, pH 7.2, 30-37° C.; FIG. 8 samples at 24 hours
Procedure: Pichia cells were suspended in extraction buffer (50 mM potassium phosphate buffer, pH 7.2; 150 mM NaCl). After sonication, the supernatant (crude extract) was collected by centrifuge set at 12,000 g at 4° C. The resulting crude protein (50 ug) was tested in a 300 ul in vitro reaction system. The reaction system contains 50 mM potassium phosphate buffer, pH 7.2, 1 mg/ml steviol glycoside. The reaction was performed at 30-37° C. and 50 ul reaction was terminated by adding 200 μL 1-butanol at various time points. The samples were extracted three times with 200 μL 1-butanol. The pooled fraction was dried and dissolved in 100 μL 80% methanol for high-performance liquid chromatography (HPLC) analysis. HPLC analysis was then performed using a Dionex UPLC ultimate 3000 system (Sunnyvale, Calif.), including a quaternary pump, a temperature controlled column compartment, an auto sampler and a UV absorbance detector. A Synergi Hydro-RP column (Phenomenex) with guard column was used for the characterization of steviol glycosides in the pooled samples. Acetonitrile in water was used mobile phase in the HPLC analysis. The detection wavelength used in the HPLC analysis was 210 nm.

[3] = relative to table sugar; cited from earlier work

Q: With C=C1C[C@@]23CC[C@H]4[C@@](C)(CCC[C@@]4(C)C(=O)O[C@@H]4O[C@H](CO)[C@@H](O)[C@H](O[C@@H]5O[C@H](CO)[C@@H](O)[C@H](O)[C@H]5O)[C@H]4O)[C@@H]2CC[C@]1(O[C@@H]1O[C@H](CO)[C@@H](O)[C@H](O[C@@H]2O[C@H](CO)[C@@H](O)[C@H](O)[C@H]2O)[C@H]1O[C@@H]1O[C@H](CO)[C@@H](O)[C@H](O)[C@H]1O)C3 [Reb 1, rebaudioside I] as the molecule, how does the “extent of conversion by recombinant B-glu1 at 24 hrs” value [1] read?
A: completely

Q: What about the “Products of hydrolysis of steviol glycoside substrate by B-glu1” value (from here on “Products of hydrolysis … by B-glu1”) [1] of the same molecule?
A: Reb A, Reb B

Q: What about the “Products of hydrolysis … by B-glu1” value ([1]; listed as Rebaudioside I) of the same molecule?
A: rebaudioside A and the produced A can be hydrolyzed to produce rebaudioside B

Q: What about the “Products of hydrolysis by disrupted Pichia cells” value [2] of the same molecule?
A: rebaudioside B

Q: With C=C1C[C@@]23CC[C@H]4[C@@](C)(CCC[C@@]4(C)C(=O)O[C@@H]4O[C@H](CO)[C@@H](O)[C@H](O)[C@H]4O)[C@@H]2CC[C@]1(O[C@@H]1O[C@H](CO)[C@@H](O)[C@H](O[C@@H]2O[C@H](CO)[C@@H](O)[C@H](O)[C@H]2O)[C@H]1O[C@@H]1O[C@H](CO)[C@@H](O)[C@H](O)[C@H]1O)C3 [Reb A, rebaudioside A] as the molecule, how does the “Products of hydrolysis … by B-glu1” value [1] read?
A: Reb B

Q: What about the “Products of hydrolysis … by B-glu1” value ([1]; listed as Rebaudioside A) of the same molecule?
A: rebaudioside B

Q: And the “Products of hydrolysis by disrupted Pichia cells” value [2]?
A: rebaudioside B

Q: What does the source list for C=C1C[C@@]23CC[C@H]4[C@@](C)(CCC[C@@]4(C)C(=O)O[C@@H]4O[C@H](CO)[C@@H](O)[C@H](O)[C@H]4O[C@@H]4O[C@H](CO)[C@@H](O)[C@H](O)[C@H]4O)[C@@H]2CC[C@]1(O[C@@H]1O[C@H](CO)[C@@H](O)[C@H](O[C@@H]2O[C@H](CO)[C@@H](O)[C@H](O)[C@H]2O)[C@H]1O[C@@H]1O[C@H](CO)[C@@H](O)[C@H](O)[C@H]1O)C3 [Reb D, rebaudioside D]?
A: Products of hydrolysis of steviol glycoside substrate by B-glu1 [1]: Reb B; Products of hydrolysis of steviol glycoside substrate by B-glu1 ([1]; listed as Rebaudioside D): rebaudioside B (FIG. 6B) and Reb A; Products of hydrolysis by disrupted Pichia cells [2]: rebaudioside B

Q: What does the source list for C=C1C[C@@]23CC[C@H]4[C@@](C)(CCC[C@@]4(C)C(=O)O[C@@H]4O[C@H](CO)[C@@H](O)[C@H](O)[C@H]4O[C@@H]4O[C@H](CO)[C@@H](O)[C@H](O)[C@H]4O)[C@@H]2CC[C@]1(O[C@@H]1O[C@H](CO)[C@@H](O)[C@H](O)[C@H]1O[C@@H]1O[C@H](CO)[C@@H](O)[C@H](O)[C@H]1O)C3 [Reb E, rebaudioside E]?
A: Products of hydrolysis of steviol glycoside substrate by B-glu1 [1]: stevioside, Steviolbioside (SB); Products of hydrolysis of steviol glycoside substrate by B-glu1 ([1]; listed as Rebaudioside E): stevioside and steviolbioside; Products of hydrolysis by disrupted Pichia cells [2]: steviolbioside

Q: For C=C1C[C@@]23CC[C@H]4[C@@](C)(CCC[C@@]4(C)C(=O)O[C@@H]4O[C@H](CO)[C@@H](O)[C@H](O)[C@H]4O)[C@@H]2CC[C@]1(O[C@@H]1O[C@H](CO)[C@@H](O)[C@H](O[C@@H]2O[C@H](CO)[C@@H](O)[C@H](O)[C@H]2O)[C@H]1O)C3 [Reb G, rebaudioside G], which “Products of hydrolysis … by B-glu1” value [1] is on record?
A: Steviol-13-O-glucoside (S-13-G), steviol

Q: And the “Products of hydrolysis … by B-glu1” value ([1]; listed as Rebaudioside G)?
A: steviol-13-glucoside

Q: What about the “Products of hydrolysis by disrupted Pichia cells” value [2] of the same molecule?
A: steviol-13-glucoside and continually to produce steviol

Q: Which “Products of hydrolysis … by B-glu1” value [1] does the source give for C=C1C[C@@]23CC[C@H]4[C@@](C)(CCC[C@@]4(C)C(=O)O[C@@H]4O[C@H](CO)[C@@H](O)[C@H](O[C@@H]5O[C@H](CO)[C@@H](O)[C@H](O)[C@H]5O)[C@H]4O[C@@H]4O[C@H](CO)[C@@H](O)[C@H](O)[C@H]4O)[C@@H]2CC[C@]1(O[C@@H]1O[C@H](CO)[C@@H](O)[C@H](O[C@@H]2O[C@H](CO)[C@@H](O)[C@H](O)[C@H]2O)[C@H]1O[C@@H]1O[C@H](CO)[C@@H](O)[C@H](O)[C@H]1O)C3 [Reb M, rebaudioside M] here?
A: No cleavage

Q: With C=C1C[C@@]23CC[C@H]4[C@@](C)(CCC[C@@]4(C)C(=O)O[C@@H]4O[C@H](CO)[C@@H](O)[C@H](O)[C@H]4O)[C@@H]2CC[C@]1(O[C@@H]1O[C@H](CO)[C@@H](O)[C@H](O)[C@H]1O)C3 [Rub, rubusoside] as the molecule, how does the “Products of hydrolysis … by B-glu1” value [1] read?
A: Steviol-13-O-glucoside (S-13-G), steviol

Q: And the “Products of hydrolysis … by B-glu1” value ([1]; listed as Rubusoside)?
A: steviol-13-glucoside

Q: What about the “Products of hydrolysis by disrupted Pichia cells” value [2] of the same molecule?
A: steviol-13-glucoside and continually to produce steviol

Q: What does the source list for C=C1C[C@@]23CC[C@H]4[C@@](C)(CCC[C@@]4(C)C(=O)O[C@@H]4O[C@H](CO)[C@@H](O)[C@H](O)[C@H]4O)[C@@H]2CC[C@]1(O[C@@H]1O[C@H](CO)[C@@H](O)[C@H](O)[C@H]1O[C@@H]1O[C@H](CO)[C@@H](O)[C@H](O)[C@H]1O)C3 [Stevioside, stevioside]?
A: Products of hydrolysis of steviol glycoside substrate by B-glu1 [1]: Steviolbioside (SB); Products of hydrolysis by disrupted Pichia cells [2]: steviolbioside; sweetness relative to sucrose [3]: 100-150 times sweeter than sucrose

Q: Which “extent of conversion by recombinant B-glu1 at 24 hrs” value [1] does the source give for C=C1C[C@@]23CC[C@H]4[C@@](C)(CCC[C@@]4(C)C(=O)O)[C@@H]2CC[C@]1(O[C@@H]1O[C@H](CO)[C@@H](O)[C@H](O)[C@H]1O)C3 [steviol-13-glucoside] here?
A: completely

Q: What about the “Products of hydrolysis … by B-glu1” value [1] of the same molecule?
A: steviol

Q: With rebaudioside B [Reb B] as the molecule, how does the “Products of hydrolysis … by B-glu1” value [1] read?
A: No cleavage

B1: B-glu1: Pichia pastoris (GS115) beta-glucosidase, SEQ ID NO: 1, His-tagged, expressed in E. coli (protein, listed as Pichia pastoris)
chain: MTQLDVESLIQELTLNEKVQLLSGSDFWHTTPVRRLGIPKMRLSDGPNGVRGTKFFNGVPTACFPCGTGLGATFDKELLKEAGSLMADEAKAKAASVVLGPTANIARGPNGGRGFESFGEDPVVNGLSSAAMINGLQGKYIAATMKHYVCNDLEMDRNCIDAQVSHRALREVYLLPFQIAVRDANPRAIMTAYNKANGEHVSQSKFLLDEVLRKEWGWDGLLMSDWFGVYDAKSSITNGLDLEMPGPPQCRVHSATDHAINSGEIHINDVDERVRSLLSLINYCHQSGVTEEDPETSDNNTPETIEKLRKISRESIVLLKDDDRNRSILPLKKSDKIAVIGNNAKQAAYCGGGSASVLSYHTTTPFDSIKSRLEDSNTPAYTIGADAYKNLPPLGPQMTDSDGKPGFDAKFFVGSPTSKDRKLIDHFQLTNSQVFLVDYYNEQIPENKEFYVDVEGQFIPEEDGTYNFGLTVFGTGRLFVDDKLVSDSSQNQTPGDSFFGLAAQEVIGSIHLVKGKAYKIKVLYGSSVTRTYEIAASVAFEGGAFTFGAAKQRNEDEEIARAVEIAKANDKVVLCIGLNQDFESEGFDRPDIKIPGATNKMVSAVLKANPNTVIVNQTGTPVEMPWASDAPVILQAWFGGSEAGTAIADVLFGDYNPSGKLTVTFPLRFEDNPAYLNFQSNKQACWYGEDVYVGYRYYETIDRPVLFPFGHGLSFTEFDFTDMFVRLEEENLEVEVVVRNTGKYDGAEVVQLYVAPVSPSLKRPIKELKEYAKIFLASGEAKTVHLSVPIKYATSFFDEYQKKWCSEKGEYTILLGSSSADIKVSQSITLEKTTFWKGL
modifications: His tag
Q: Which “activity to cleave related steviol glycosides” value ([1]; activity screening of candidate Pichia pastoris beta-glucosidases) does the source give for B1 here?
A: strong activity
